Source: patent US20220304305A1, “HIGHLY EFFECTIVE FORMULATIONS ON THE BASIS OF 2-[(2,4-DICHLORPHENYL)-METHYL]-4,4'-DIMETHYL-3-ISOXAZOLIDINONES AND PREEMERGENCE HERBICIDES” (Bayer Aktiengesellschaft, priority 2019, published 2022)

How the values were obtained:
[1] = list of substances and abbreviations used; cited from earlier work
[2] = system: gramineous weeds in winter cereals; assay: Greenhouse trials, activity against gramineous weeds (summary in words); assay type: in vivo; details: with both adjuvants from as low as 250 g/ha
Experimental: In the standard implementation of the test, seeds of various broad-leaved weed and weed grass biotypes (origins) were sown in an 8-13 cm diameter pot filled with natural soil of a standard field soil (loamy silt; non-sterile) and covered with a covering soil layer of about 1 cm. The pots were then cultivated in a greenhouse (light for 12-16 h, temperature 20-22° C. by day, 15-18° C. by night) until the time of application. The pots were treated on a laboratory track sprayer with spray liquors comprising the mixtures/compositions of the invention, mixtures of the prior art or the components applied individually. Application of the active ingredients or active ingredient combinations formulated as WG, WP, EC or otherwise was effected at the appropriate growth stages of the plants. The amount of water used for spray application was 100-600 l/ha. After the treatment, the plants were returned to the greenhouses.
About 3 weeks after the application, the soil action or/and foliar action was assessed visually according to a scale of 0-100% in comparison to an untreated comparative group: 0%=no noticeable effect compared to the untreated comparative group; 100%=full effect compared to the untreated comparative group. […]

Structure (SMILES)	log P [1]	improvement [2]
CC(C)N(C(=O)COc1nnc(C(F)(F)F)s1)c1ccc(F)cc1 [flufenacet, 4′-fluoro-N-isopropyl-2-(5-trifluoromethyl-1,3,4-thiadiazol-2-yloxy)acetanilide]	(Bayer AG), abbreviated hereinafter to FFA, log P = 3.2	
CC1(C)CON(Cc2ccc(Cl)cc2Cl)C1=O [DCPMI, 2-[(2,4-dichlorophenyl)methyl]-4,4′-dimethyl-3-isoxazolidinone]	abbreviated hereinafter to DCPMI), log P = 3.39	significant improvement
